# Experimental data: article PMC9779727, “Identification of Novel Artemisinin Hybrids Induce Apoptosis and Ferroptosis in MCF-7 Cells” (International Journal of Molecular Sciences, 2022)
# Experiments:
# MCF-7 cells [1] = assay: JC-1 mitochondrial membrane potential assay; assay type: cell-based, human; settings: 48 h, control 7.85%
# Procedure: JC-1 staining was also performed to explore the change in mitochondrial membrane potential (MMP), which could induce apoptosis.
# MCF-7 cells were plated at 1 × 10^6 cells per well in 24-well plates and incubated with compound A8 at various concentrations (0, 2.5, 5 and 10 μM) for 48 h. Subsequently, the cells were incubated with JC-1 dye and finally analyzed by flow cytometry (Beckman Coulter cytoFLEX, USA).
# CYP1A2 = biological target: T1, CYP1A2 (Homo sapiens, UniProt P05177); assay: CYPs inhibition assay, CYP1A2; assay type: in vitro ADME
# T1 construct: from tissue; host or cells: human liver microsomes
# T1 sequence (P05177 1-516): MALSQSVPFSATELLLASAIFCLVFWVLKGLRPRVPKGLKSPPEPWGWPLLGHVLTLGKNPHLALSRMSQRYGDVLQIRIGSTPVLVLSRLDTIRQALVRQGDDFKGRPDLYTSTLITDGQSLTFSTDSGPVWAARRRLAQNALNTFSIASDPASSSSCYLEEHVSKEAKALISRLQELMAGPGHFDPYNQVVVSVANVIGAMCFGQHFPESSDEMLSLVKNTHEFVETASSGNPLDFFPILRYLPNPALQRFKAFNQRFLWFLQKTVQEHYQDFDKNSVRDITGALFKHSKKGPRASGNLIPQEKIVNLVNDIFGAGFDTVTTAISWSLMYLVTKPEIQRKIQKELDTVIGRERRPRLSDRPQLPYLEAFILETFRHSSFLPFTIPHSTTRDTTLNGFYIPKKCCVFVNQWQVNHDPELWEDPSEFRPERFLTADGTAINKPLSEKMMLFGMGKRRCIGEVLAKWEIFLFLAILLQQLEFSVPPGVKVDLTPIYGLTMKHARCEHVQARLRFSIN
# Procedure: (§1) Finally, we evaluated the interaction between the hybrid A8 and five major metabolic enzymes (CYP1A2, CYP2C9, CYP2C19, CYP2D6 and CYP3A4) in the human body. […] It is also one of the directions for our further transformation and optimization.
# (§2) Cytochrome P450 inhibition was evaluated in human liver microsomes (0.253 mg/mL) using five […] (CYP1A2, α-Naphthoflavone; CYP2C9, Sulfaphenazole; CYP2C19, Benzylnirvanol; CYP2D6, Quinidine; and CYP3A4, Ketoconazole.) in the presence of compound A8 (10 μM). After preincubation for 10 min at 37 °C, an NADPH-regenerating system was added. After the mixed system was incubated for 15 min at 37 °C, the reaction was stopped by adding 400 μL of cold stop solution (200 ng/mL tolbutamide and 200 ng/mL labetalol in acetonitrile). Then, the mixture was centrifuged, and the supernatant was analyzed by LC-MS/MS.
# MCF-7 cells [2] = assay: Annexin V-FITC/PI apoptosis assay (flow cytometry); assay type: cell-based, human; settings: 48 h
# Procedure: To investigate whether hybrid A8 exerts an antitumor effect on MCF-7 cells by inducing apoptosis, an annexin V-FITC/PI binding assay was performed. MCF-7 cells were treated with vehicle or various concentrations (2.5, 5 and 10 μM) of hybrid A8 for 48 h and were then stained with FITC-annexin V and propidium iodide (PI). The percentages of apoptotic MCF-7 cells were determined by flow cytometry. A8-induced apoptosis in a dose-dependent manner. The percentages of total apoptotic cells (Q1-UR + Q1-LR) were 17.99% (2.5 μM), 35.98% (5 μM) and 48.65% (10 μM). […] In addition, obvious changes in cell morphology were also observed.
# Cells apoptosis was assessed using Annexin V/PI staining assay. MCF-7 cells were seeded into 6-well plates for 24 h and then treated with compound A8 at various concentrations (0, 2.5, 5 and 10 μM) for 48 h. Then, cells were collected, washed with 500 μL annexin-binding buffer and stained with 5 μL annexin V-FITC and 5 μL PI for 15 min at 25 °C. After that, the samples were analyzed by flow cytometry (Beckman Coulter cytoFLEX, Brea, CA, USA).
# [3] = tested on: breast cancer MCF-7 cells; assay: MTT antiproliferation assay, MCF-7; assay type: cell-based, human; settings: 48 h, means ± SD, n = 3
# Description: (§3) The target hybrids A1–A15 were screened for their antiproliferation activities against five human cancer cell lines (lung cancer A549 cells, breast cancer MCF-7 and MDA-MB-231 cells, colon cancer HCT116 cells and ovarian cancer SK-OV-3 cells) in vitro by the standard MTT method, and 5-fluorouracil (5-FU) and ART were coassayed as controls. […] Therefore, the most promising hybrid, A8, was chosen for further exploration of the preliminary mechanism of MCF-7 cell antiproliferation.
# (§4) Cytotoxicity of test compounds against five different tumor cell lines were evaluated using an MTT assay in vitro. Cells were seeded into 96-well plates at a density of 5 × 10^4 cells per well and stabilized at 37 °C with 5% CO2 for 24 h. Compounds A1–A15, ART and 5-FU were added to each well at various concentrations and then the cells were incubated for 48 h. The MTT solution (100 μL 0.5 mg/mL^−1) was added to each well, and the cells were incubated for another 4 h. Then, 150 μL DMSO was added to each well and the absorbance of samples was measured at 492 nm. The IC50 values were calculated according to Logit method after getting the inhibitory rate.
# lung cancer A549 cells = assay: MTT antiproliferation assay, A549; assay type: cell-based, human; settings: 48 h, means ± SD, n = 3
# Description: as §3, §4
# CYP3A4 = biological target: T2, CYP3A4 (Homo sapiens, UniProt P08684); assay: CYPs inhibition assay, CYP3A4; assay type: in vitro ADME
# T2 construct: from tissue; host or cells: human liver microsomes
# Procedure: as §1, §2
# [4] = tested on: ovarian cancer SK-OV-3 cells; assay: MTT antiproliferation assay, SK-OV-3; assay type: cell-based, human; settings: 48 h, means ± SD, n = 3
# Description: as §3, §4
# CYP2D6 = biological target: T3, CYP2D6 (Homo sapiens, UniProt P10635); assay: CYPs inhibition assay, CYP2D6; assay type: in vitro ADME; settings: human liver microsomes
# T3 construct: from tissue; host or cells: human liver microsomes
# Procedure: as §1, §2
# MCF-7 cells [5] = assay: Intracellular ROS generation (DCFH-DA, flow cytometry); assay type: cell-based, human; settings: MCF-7, 0, 2.5, 5 and 10 μM, 48 h
# Procedure: First, we detected ROS levels using DFCH-DA.
# ROS production was detected by using the peroxide-sensitive fluorescent probe DCFH-DA. After treatment with different concentrations of A8 for 48 h, the cells were incubated with 10 μg/mL DCFH-DA at 37 °C for 20 min. Then, cells were harvested. Samples were analyzed by flow cytometry (FACS Calibur, Becton-Dickinson, East Rutherford, NJ, USA).
# [6] = tested on: colon cancer HCT116 cells; assay: MTT antiproliferation assay, HCT116; assay type: cell-based, human; settings: 48 h, means ± SD, n = 3
# Description: as §3, §4
# T2 sequence (P08684 whole entry): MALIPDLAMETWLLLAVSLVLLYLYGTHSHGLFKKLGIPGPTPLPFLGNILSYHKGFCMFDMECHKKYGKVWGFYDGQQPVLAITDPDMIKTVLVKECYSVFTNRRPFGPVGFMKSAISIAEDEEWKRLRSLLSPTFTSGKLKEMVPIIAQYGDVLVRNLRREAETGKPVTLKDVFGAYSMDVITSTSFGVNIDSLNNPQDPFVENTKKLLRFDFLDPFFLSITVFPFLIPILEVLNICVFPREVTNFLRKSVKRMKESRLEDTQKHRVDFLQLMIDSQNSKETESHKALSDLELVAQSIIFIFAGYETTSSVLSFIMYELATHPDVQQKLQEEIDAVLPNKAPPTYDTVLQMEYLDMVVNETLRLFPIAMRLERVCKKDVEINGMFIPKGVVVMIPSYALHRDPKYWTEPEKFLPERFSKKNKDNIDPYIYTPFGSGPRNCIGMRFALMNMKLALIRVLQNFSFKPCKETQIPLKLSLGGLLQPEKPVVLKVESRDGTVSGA
# T3 sequence (P10635 whole entry): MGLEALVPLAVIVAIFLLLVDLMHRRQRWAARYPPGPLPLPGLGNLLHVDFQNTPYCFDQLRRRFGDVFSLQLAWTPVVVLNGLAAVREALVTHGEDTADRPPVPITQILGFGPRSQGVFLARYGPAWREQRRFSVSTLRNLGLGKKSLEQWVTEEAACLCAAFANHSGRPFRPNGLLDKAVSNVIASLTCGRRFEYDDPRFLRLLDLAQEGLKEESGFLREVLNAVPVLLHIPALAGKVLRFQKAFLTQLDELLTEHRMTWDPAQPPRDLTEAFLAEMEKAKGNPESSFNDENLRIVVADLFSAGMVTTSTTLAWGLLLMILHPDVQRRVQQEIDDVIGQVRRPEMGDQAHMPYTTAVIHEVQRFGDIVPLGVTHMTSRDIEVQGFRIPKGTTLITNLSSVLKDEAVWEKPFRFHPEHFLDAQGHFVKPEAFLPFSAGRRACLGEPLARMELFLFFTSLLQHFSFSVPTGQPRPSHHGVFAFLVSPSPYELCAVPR
smiles,measurement,setting,value
CC1CCC2C(C)C(OC(=O)CCC(=O)NCc3nnc(Nc4ccc(F)cc4F)o3)OC3OC4(C)CCC1C32OO4 (stereo not shown) [A8],proportion of MCF-7 cells with depolarized mitochondria (Q1-LR),MCF-7 cells [1]; 2.5 μM,19.45%
same,proportion of MCF-7 cells with depolarized mitochondria (Q1-LR),MCF-7 cells [1]; 5 μM,36.90%
same,proportion of MCF-7 cells with depolarized mitochondria (Q1-LR),MCF-7 cells [1]; 10 μM,48.70%
same,inhibitory effect on CYP1A2 (in words),CYP1A2; 10 μM,moderate inhibitory effect
same,Inhibition at 10 μM (%) CYP1A2,CYP1A2; human liver microsomes,57.1%
same,percentage of total apoptotic cells (Q1-UR + Q1-LR),"MCF-7 cells [2]; MCF-7, 2.5 μM",17.99%
same,percentage of total apoptotic cells (Q1-UR + Q1-LR),"MCF-7 cells [2]; MCF-7, 5 μM",35.98%
same,percentage of total apoptotic cells (Q1-UR + Q1-LR),"MCF-7 cells [2]; MCF-7, 10 μM",48.65%
same,IC50,[3],4.07 ± 0.05 µM
same,IC50,lung cancer A549 cells,7.7 ± 0.36 µM
same,inhibitory effect on CYP3A4 (in words),CYP3A4; 10 μM,moderate inhibitory effect
same,Inhibition at 10 μM (%) CYP3A4,CYP3A4; human liver microsomes,55.8%
same,IC50,[4],7.15 ± 0.95 µM
same,Inhibition at 10 μM (%) CYP2D6,CYP2D6,0.1%
same,ROS fluorescence intensity (in words),MCF-7 cells [5],increased significantly with increasing drug concentration
same,IC50,[6],9.71 ± 0.37 µM
